Results reported in patent publication US20260216109A1, “TREATMENT OF SKIN DISORDERS WITH SHORT CHAIN FATTY ACIDS” (Temple University-Of The Commonwealth System of Higher …, priority 2023, published 2026).

Key:
[1] = test system: imiquimod (IMQ)-induced psoriasis model mice; experiment: Disease severity score, imiquimod (IMQ)-induced psoriasis model in mice; format: in vivo, mouse; conditions: for disease severity score (psoriasis severity score): Example 12
Method: Topical application of IMQ, a TLR7/8 ligand and potent immune activator induced and exacerbated psoriasis in mice. The mouse IMQ-induced psoriasis (IMQ Ps) model was initiated by a repeated topical application of Aldara© cream (containing 5% IMQ) over 6 consecutive days. Female Balb/c mice (9 weeks of age at reception, ordered with 20 g, Charles River, Sulzfeld, Germany; n=10 mice/group, exception healthy controls n=4) received daily a topical application of 62.5 mg of commercially available IMQ cream (5% Aldara©) on the beforehand (day −1) shaved (~2 cm×3 cm), depilated (Pilka© cream) back skin, and 7 mg on the outer right ear skin for 6 consecutive days, translating in a daily dose of approximately 3.5 mg IMQ. Healthy control mice were included in the study and were treated with vehicle cream (Vaseline; Bombastus-Werke AG) only instead of IMQ. Additionally, an IMQ disease control group was also included.
Before starting treatment on the day of disease induction (day 0), mice were randomized based on body weight to the respective group. To evaluate the anti-inflammatory efficacy of the two test compounds in mouse IMQ psoriasis, mice were treated twice daily ([…] in sterile water; m/m/v) or with fixed dose of SCFA (in ddH2O) starting on day 0.
Disease Severity Score was evaluated on a daily base starting with the induction of psoriasis by IMQ application (day 0) until the end (day 6) of the study. The psoriasis severity on the back skin of the mice was evaluated by using a modified scoring system developed by van der Fits et al., based on the clinical PASI (psoriasis area and severity index) and takes skin erythema, scaling and skin thickening into account. Scoring was performed by the same lab technician throughout the experiment. Each parameter was scored independently on a scale from 0 to 3.
The added-up score (erythema plus scaling plus thickening), named disease severity score (scale 0-9), served then as marker for the severity of back skin inflammation. In addition, ear thickness of the right ear was determined daily by using an automatized caliper (Bayer AG, Germany).
The statistical analysis of the data was conducted by using the GraphPad PRISM software. Here, a one-way analysis of variance (ANOVA) and a pair-wise comparison to the IMQ disease control group (using the Dunnett's test) as a multiple comparison procedure was performed. Statistical significance was delineated by p value (*, p<0.05; **, p<0.01; ***, p<0.005; **** p<0.001).

[2] = test system: IL-21; experiment: Multiplex (MSD V-PLEX) cytokine release, InflammaSkin: IL-21; format: cell-based, human; conditions: Example 2; 1 μM Otezla systemic; compared to untreated InflammaSkin
Method: (§1) A total of 16 biopsies of 15 mm diameter were produced from a single donor. Two NativeSkin® models with 12/15 mm silicon rings were produced from the biopsies according to standard procedures in place, and cultured under cell culture conditions (37° C., 5% CO2, max. humidity) for 7 days with 2 mL of standard NativeSkin® medium renewed every day. Fourteen PSO-InflammaSkin® models with 12/15 mm silicon rings were produced by inducing in situ activation and Th17/Th1 polarization of skin resident T cells with a proprietary cocktail, and cultured under cell culture conditions (37° C., 5% CO2, max. humidity) for 7 days with 2 mL of PSO-InflammaSkin® culture medium renewed every day. […]
(§2) Human pro-inflammatory cytokines released in the supernatant were quantified using the V-PLEX Human IL-17A Kit (MesoScale Discovery, reference: K151RFD-1) and V-PLEX Human custom Pro-inflammatory. […]
(§3) Samples were diluted four times for plate 2 and two times for plate 1. Samples and standards were assessed in duplicate. Plates were read on MesoScale Discovery Quickpleax SQ 120 plate reader and values expressed in pg/mL.
(§4) A statistical analysis was performed. […] First, the distribution's normality of the two compared group was assessed. […] If the two distributions were normal, the homogeneity of variances was assessed using a Fisher test on the variances. […]

[3] = test system: IL-22; experiment: Multiplex (MSD V-PLEX) cytokine release, InflammaSkin: IL-22; format: cell-based, human; conditions: Example 2; Day 7 supernatant; 1 μM Otezla or SCFA systemic, 0.05% Betamethasone topical; vs untreated InflammaSkin
Method: as §1, §2, §3, §4

[4] = test system: IL-31; experiment: Multiplex (MSD V-PLEX) cytokine release, InflammaSkin: IL-31; format: cell-based, human; conditions: Example 2; Day 7 supernatant; 1 μM Otezla or SCFA systemic; vs untreated InflammaSkin
Method: as §1, §2, §3, §4

For `CCOc1cc([C@@H](CS(C)(=O)=O)N2C(=O)c3cccc(NC(C)=O)c3C2=O)ccc1OC` [Otezla, Apremilast], which “disease severity score (psoriasis severity), back skin” value ([1]; Example 4, oral gavage BID from day 0 to day 6, Apremilast 25 mg/kg BID (50 mg/kg/day), SCFA fixed dose (120 mg/kg/day Ca-propionate + 2,146 mg/kg/day Ca-/Mg-butyrate), vs IMQ control) is on record?
Its value is “significantly inhibited the psoriasis severity in IMQ-treated mice throughout the duration of the experiment”.

What about the “disease severity score (psoriasis severity)” value ([1]; Example 5, Apremilast 10 mg/kg/day and 14 mg/kg/day (5 and 7 mg/kg BID), oral) of the same compound?
The value was “inhibited the psoriasis severity in IMQ-treated mice within the first four days of the study, but anti-inflammatory effects were not maintained until the end of the study at day 6”.

What about the “disease severity score (psoriasis severity score)” value ([1]; Apremilast 12 mg/kg BID oral, monotherapy) of the same compound?
Its value is “did not reach significance at day 4 and day 5”.

What about the “disease severity score (psoriasis severity score)” value ([1]; Apremilast 25 mg/kg BID oral alone, or combined with fixed dose SCFA (60 mg/kg/day Ca-propionate + 1,100 mg/kg/day Ca-/Mg-butyrate)) of the same compound?
The value was “reduced the psoriasis severity score in IMQ-treated mice at day 4 of the study (p<0.05), and these effects were maintained at the end of the study at day 6”.

What about the “increase of secretion of IL-21” value [2] of the same compound?
Its value is “about 50%”.

And the IL-22 secretion [3]?
The IL-22 secretion was “significantly reduced”.

What about the IL-31 secretion [4] of the same compound?
The IL-31 secretion was “reduced IL-31 (FIG. 10 and FIG. 17), but it was not significantly different from untreated InflammaSkin® models”.
